Assays:
Format in all cases: functional, cell-based
[1] = target: T1, NTCP (hepatic sodium/bile acid cotransporter) (Homo sapiens, UniProt Q14973); assay: TP_TRANSPORTER: inhibition of Taurocholate uptake (Caspofungin:100 uM) in NTCP-expressing HeLa cells; design: scale not given: the % may be the effect or the level left; settings: HeLa cells that express NTCP, probe taurocholate, read-out: Activity
T1 sequence (Q14973 whole entry): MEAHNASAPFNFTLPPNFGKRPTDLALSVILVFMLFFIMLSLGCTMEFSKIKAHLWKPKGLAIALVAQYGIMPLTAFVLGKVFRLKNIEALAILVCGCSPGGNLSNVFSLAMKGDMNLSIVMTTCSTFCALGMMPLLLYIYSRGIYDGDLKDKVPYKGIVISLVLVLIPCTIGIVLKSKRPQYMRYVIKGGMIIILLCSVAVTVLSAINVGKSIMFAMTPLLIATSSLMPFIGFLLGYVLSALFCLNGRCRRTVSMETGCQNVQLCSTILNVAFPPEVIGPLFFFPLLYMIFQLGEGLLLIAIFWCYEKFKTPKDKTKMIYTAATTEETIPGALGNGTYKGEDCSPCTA

[2] = target: T2, OCT1 (solute carrier family 22 member 1) (Homo sapiens, UniProt O15245); assay: TP_TRANSPORTER: inhibition of Tetraethyl ammonium uptake (Caspofungin:100 uM) in OCT1-expressing HeLa cells; design: scale not given: the % may be the effect or the level left; settings: HeLa cells that express OCT1, probe tetraethyl ammonium, read-out: Activity
T2 sequence (O15245 whole entry): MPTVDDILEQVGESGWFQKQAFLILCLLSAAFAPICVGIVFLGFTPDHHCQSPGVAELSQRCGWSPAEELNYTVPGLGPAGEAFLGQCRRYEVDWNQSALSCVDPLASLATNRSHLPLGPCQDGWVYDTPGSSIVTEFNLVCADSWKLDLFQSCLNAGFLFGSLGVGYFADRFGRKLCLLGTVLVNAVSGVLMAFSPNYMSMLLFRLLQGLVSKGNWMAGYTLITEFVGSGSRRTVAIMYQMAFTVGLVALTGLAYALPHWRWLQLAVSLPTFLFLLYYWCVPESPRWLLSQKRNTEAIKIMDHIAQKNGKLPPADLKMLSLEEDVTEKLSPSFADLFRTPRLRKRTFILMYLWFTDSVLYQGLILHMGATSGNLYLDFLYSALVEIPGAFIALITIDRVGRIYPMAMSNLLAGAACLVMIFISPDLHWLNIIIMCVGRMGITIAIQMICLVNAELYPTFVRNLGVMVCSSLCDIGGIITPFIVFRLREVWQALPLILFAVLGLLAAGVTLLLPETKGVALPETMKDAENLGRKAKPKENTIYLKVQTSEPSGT

[3] = target: ATP-dependent translocase ABCB1 (Homo sapiens, UniProt P08183); assay: TP_TRANSPORTER: cell accumulation of vinblastine in KB-V1 cells
[4] = target: T3, Solute carrier organic anion transporter family member 1B1 (Homo sapiens, UniProt Q9Y6L6); assay: TP_TRANSPORTER: uptake in OATP1B1-expressing Tet-on HeLa cells
T3 sequence (Q9Y6L6 whole entry): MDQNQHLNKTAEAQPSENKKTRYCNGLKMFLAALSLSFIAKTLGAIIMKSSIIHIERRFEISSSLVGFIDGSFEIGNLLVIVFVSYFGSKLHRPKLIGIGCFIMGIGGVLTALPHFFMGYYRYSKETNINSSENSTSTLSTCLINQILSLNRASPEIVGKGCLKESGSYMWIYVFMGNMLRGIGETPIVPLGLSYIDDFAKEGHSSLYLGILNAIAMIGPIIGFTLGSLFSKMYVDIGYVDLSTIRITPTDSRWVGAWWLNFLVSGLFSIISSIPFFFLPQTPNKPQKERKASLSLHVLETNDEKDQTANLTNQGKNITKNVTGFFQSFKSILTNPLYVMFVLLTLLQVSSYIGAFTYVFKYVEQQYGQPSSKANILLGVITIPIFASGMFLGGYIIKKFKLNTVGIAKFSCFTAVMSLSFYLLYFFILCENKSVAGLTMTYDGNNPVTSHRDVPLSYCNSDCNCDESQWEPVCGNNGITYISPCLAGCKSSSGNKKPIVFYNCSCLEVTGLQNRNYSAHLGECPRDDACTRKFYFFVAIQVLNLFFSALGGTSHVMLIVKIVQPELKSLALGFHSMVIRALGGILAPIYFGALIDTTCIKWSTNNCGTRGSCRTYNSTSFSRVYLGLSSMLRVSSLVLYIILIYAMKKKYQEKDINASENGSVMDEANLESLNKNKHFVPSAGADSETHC

[5] = target: T3, Solute carrier organic anion transporter family member 1B1; assay: TP_TRANSPORTER: inhibition of estradiol-17beta-D-glucuronide uptake (Caspofungin:100 uM) in OATP1B1-expressing HeLa cells; design: scale not given: the % may be the effect or the level left
[6] = target: T4, Solute carrier organic anion transporter family member 1B3 (Homo sapiens, UniProt Q9NPD5); assay: TP_TRANSPORTER: uptake in OATP1B3-expressing Tet-on HeLa cells
T4 sequence (Q9NPD5 whole entry): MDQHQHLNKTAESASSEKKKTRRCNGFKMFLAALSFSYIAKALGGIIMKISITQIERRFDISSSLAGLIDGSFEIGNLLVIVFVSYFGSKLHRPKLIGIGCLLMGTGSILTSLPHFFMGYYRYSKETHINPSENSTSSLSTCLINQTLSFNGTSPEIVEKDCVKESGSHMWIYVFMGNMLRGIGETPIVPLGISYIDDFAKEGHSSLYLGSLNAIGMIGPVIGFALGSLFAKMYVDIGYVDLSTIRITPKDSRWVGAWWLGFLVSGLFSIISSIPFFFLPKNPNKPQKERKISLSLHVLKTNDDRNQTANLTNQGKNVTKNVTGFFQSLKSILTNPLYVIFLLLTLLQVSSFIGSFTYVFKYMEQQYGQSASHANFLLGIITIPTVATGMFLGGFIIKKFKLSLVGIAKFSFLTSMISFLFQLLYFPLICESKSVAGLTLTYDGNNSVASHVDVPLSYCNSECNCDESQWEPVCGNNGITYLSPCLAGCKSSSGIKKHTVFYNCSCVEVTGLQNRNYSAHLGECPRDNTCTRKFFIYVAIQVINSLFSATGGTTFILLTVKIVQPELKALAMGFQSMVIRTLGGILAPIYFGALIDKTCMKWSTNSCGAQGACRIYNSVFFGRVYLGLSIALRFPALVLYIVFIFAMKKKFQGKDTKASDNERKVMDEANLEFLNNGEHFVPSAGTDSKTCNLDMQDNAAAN

[7] = target: T5, Solute carrier family 22 member 6 (Homo sapiens, UniProt Q4U2R8); assay: TP_TRANSPORTER: inhibition of p-amino hippurate uptake (Caspofungin:100 uM) in OAT1-expressing HeLa cells; design: scale not given: the % may be the effect or the level left
T5 sequence (Q4U2R8 whole entry): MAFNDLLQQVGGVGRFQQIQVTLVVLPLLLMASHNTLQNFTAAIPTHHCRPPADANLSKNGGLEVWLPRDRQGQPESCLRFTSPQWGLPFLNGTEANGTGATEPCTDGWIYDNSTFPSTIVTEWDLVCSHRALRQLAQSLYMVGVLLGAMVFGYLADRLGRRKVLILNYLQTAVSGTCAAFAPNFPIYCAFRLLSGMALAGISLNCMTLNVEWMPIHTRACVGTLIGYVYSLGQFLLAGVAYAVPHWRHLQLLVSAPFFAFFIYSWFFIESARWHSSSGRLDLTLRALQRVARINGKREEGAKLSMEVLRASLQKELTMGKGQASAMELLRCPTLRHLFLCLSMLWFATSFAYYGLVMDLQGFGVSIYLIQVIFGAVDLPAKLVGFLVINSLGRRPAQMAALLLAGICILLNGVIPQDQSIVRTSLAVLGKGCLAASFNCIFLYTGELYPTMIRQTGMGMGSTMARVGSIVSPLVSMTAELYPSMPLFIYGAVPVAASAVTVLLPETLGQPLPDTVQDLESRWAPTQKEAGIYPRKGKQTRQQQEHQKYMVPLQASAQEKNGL

[8] = target: T5, Solute carrier family 22 member 6; assay: TP_TRANSPORTER: inhibition of p-amino hippurate uptake (Indomethacin:100 uM) in OAT1-expressing HeLa cells; design: scale not given: the % may be the effect or the level left
[9] = target: T6, OATP1B1 (solute carrier organic anion transporter family member 1B1) (Homo sapiens, UniProt Q9Y6L6); assay: TP_TRANSPORTER: inhibition of estradiol-17beta-D-glucuronide uptake (Lovastatin:10 uM) in OATP1B1-expressing HeLa cells; design: scale not given: the % may be the effect or the level left; settings: HeLa cells that express OATP1B1, probe estradiol-17beta-D-glucuronide, read-out: Activity
T6 sequence (Q9Y6L6 whole entry): T3 sequence (Q9Y6L6 whole entry)

[10] = target: T2, OCT1 (solute carrier family 22 member 1); assay: TP_TRANSPORTER: inhibition of Tetraethyl ammonium uptake (Quinidine:100 uM) in OCT1-expressing HeLa cells; design: scale not given: the % may be the effect or the level left; settings: HeLa cells that express OCT1, probe tetraethyl ammonium, read-out: Activity
[11] = target: T1, NTCP (hepatic sodium/bile acid cotransporter); assay: TP_TRANSPORTER: inhibition of Taurocholate uptake (Ursodeoxycholate:10 micro;M) in NTCP-expressing HeLa cells; design: scale not given: the % may be the effect or the level left; settings: HeLa cells that express NTCP, probe taurocholate, read-out: Activity

Sequence of ATP-dependent translocase ABCB1 (P08183 whole entry): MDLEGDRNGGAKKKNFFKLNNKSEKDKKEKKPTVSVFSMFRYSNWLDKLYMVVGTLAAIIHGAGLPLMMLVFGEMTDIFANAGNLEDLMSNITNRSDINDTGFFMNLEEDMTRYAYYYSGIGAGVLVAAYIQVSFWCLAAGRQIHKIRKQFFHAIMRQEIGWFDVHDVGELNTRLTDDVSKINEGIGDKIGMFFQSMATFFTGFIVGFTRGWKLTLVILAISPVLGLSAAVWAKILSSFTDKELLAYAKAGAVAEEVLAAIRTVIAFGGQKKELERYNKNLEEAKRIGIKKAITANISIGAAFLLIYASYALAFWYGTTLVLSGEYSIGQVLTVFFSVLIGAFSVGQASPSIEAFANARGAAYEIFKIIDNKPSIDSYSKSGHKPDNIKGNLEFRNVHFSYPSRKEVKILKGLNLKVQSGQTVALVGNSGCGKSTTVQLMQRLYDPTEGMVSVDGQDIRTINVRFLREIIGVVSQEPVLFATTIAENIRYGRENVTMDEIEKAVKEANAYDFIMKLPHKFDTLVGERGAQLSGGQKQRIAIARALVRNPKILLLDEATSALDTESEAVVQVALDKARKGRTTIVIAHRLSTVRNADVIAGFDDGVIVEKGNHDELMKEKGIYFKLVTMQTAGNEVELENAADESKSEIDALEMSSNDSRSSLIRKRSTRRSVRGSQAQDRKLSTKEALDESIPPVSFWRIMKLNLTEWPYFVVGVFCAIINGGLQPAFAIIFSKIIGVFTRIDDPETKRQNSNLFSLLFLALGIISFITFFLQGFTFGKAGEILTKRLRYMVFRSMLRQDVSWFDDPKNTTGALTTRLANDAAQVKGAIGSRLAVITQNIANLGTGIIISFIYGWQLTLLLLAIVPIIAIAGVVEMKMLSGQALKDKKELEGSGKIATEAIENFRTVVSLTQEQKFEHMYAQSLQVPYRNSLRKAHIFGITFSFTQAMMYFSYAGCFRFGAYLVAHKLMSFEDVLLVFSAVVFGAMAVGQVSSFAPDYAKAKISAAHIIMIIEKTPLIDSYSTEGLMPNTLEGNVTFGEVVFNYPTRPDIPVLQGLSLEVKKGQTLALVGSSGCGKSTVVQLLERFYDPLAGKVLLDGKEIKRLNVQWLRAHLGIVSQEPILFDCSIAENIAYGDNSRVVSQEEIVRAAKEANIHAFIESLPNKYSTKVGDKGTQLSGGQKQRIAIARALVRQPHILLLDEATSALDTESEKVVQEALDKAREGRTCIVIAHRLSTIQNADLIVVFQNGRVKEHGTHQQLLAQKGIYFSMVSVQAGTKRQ

CC[C@H](C)C[C@H](C)CCCCCCCCC(=O)N[C@H]1C[C@@H](O)[C@@H](NCCN)NC(=O)[C@@H]2[C@@H](O)CCN2C(=O)[C@H]([C@H](O)CCN)NC(=O)[C@H]([C@H](O)[C@@H](O)c2ccc(O)cc2)NC(=O)[C@@H]2C[C@@H](O)CN2C(=O)[C@H]([C@@H](C)O)NC1=O [CASPOFUNGIN]
activity at 100 µM [1]: 10% | activity at 100 µM [2]: 30% | Activity [3]: inhibitor [+] | Activity [4]: substrate [+] | Activity [5]: 5% | Activity [6]: is not a substrate [-] | Activity [7]: 40%

COc1ccc2c(c1)c(CC(=O)O)c(C)n2C(=O)c1ccc(Cl)cc1 [INDOMETHACIN]
Activity [8]: 20%

CC[C@H](C)C(=O)O[C@H]1C[C@@H](C)C=C2C=C[C@H](C)[C@H](CC[C@@H]3C[C@@H](O)CC(=O)O3)[C@H]21 [LOVASTATIN]
activity at 10 µM [9]: 40%

C=C[C@H]1C[N@@]2CC[C@H]1C[C@@H]2[C@@H](O)c1ccnc2ccc(OC)cc12 [QUINIDINE]
activity at 100 µM [10]: 20%

C[C@H](CCC(=O)O)[C@H]1CC[C@H]2[C@@H]3[C@@H](O)C[C@@H]4C[C@H](O)CC[C@]4(C)[C@H]3CC[C@]12C [URSODIOL]
activity at 10 µM [11]: 30%

— ChEMBL document CHEMBL2074299, “Hepatic uptake of the novel antifungal agent caspofungin” (Drug Metab Dispos, 2005)
